Measurements: patent publication US20050143628A1, “Methods for characterizing tissue or organ condition or status” (priority 2003, published 2005)
“And” between values parts separate entries of the source, which are not always exact repeats. Identical values can stand only once. Like-named read-outs stand apart in the source and are kept apart here.

Experiments:
rat liver [1] = assay: Serum clinical chemistry: alanine aminotransferase (ALT) after 3-day treatment
From the text: (§1) After 3-day treatment, rat liver samples were collected for RNA extraction and histo-pathology examination. Sera from the same rats were subjected to clinical chemistry monitoring.
(§2) Liver injury was identified by the individual clinical chemistry measurement if its level was outside +/− two standard deviations of the averaged level of normal animals.

rat liver [2] = assay: Serum clinical chemistry: aspartate aminotransferase (AST) after 3-day treatment
From the text: as §1, §2

rat liver [3] = assay: Serum clinical chemistry: alkaline phosphatase (ALP) after 3-day treatment
From the text: as §1, §2

rat liver [4] = assay: Serum clinical chemistry: total bilirubin (Tbil) after 3-day treatment
From the text: as §1, §2

rat liver [5] = assay: Serum clinical chemistry: cholesterol (Chol) after 3-day treatment
From the text: as §1, §2

rat liver [6] = conditions: for Pathological observations in liver: model false positive
From the text: as §1

rat liver [7] = assay: Hepatotoxicity score (HS) combined from five clinical chemistry measurements, threshold -0.25; conditions: 3-day treatment
rat liver [8] = conditions: in vivo, 150 mg/kg/day
[9] = rat serum, dose .001 mg/kg/day, individual rats
[10] = rat serum, dose 100 mg/kg, individual rats
[11] = rat serum, dose 1000 mg/kg, individual rats
[12] = rat serum, dose 50 mg/kg/day, individual rats
[13] = SD rats, 10 mg/kg/day, 3-day treatment, the other two of three treated rats
[14] = rat serum, dose 320 mg/kg/day, individual rats
[15] = rat serum, dose 500 mg/kg/day, individual rats
[16] = rat serum, dose 45 mg/kg/day, individual rats
[17] = rat serum, dose 450 mg/kg/day, individual rats
[18] = rat serum, dose 1 mg/kg/day, individual rats
[19] = rat serum, dose 160 mg/kg, individual rats
[20] = rat serum, dose 1600 mg/kg, individual rats

**Q.** How did the ALT (rat liver [1]; rat, in vivo) turn out when aflatoxin B was run?
**A.** Its ALT is 81.000 and 48.000 and 59.000.

**Q.** What about the AST (rat liver [2]; rat, in vivo) of the same compound?
**A.** The AST was 206.000 and 132.000 and 156.000.

**Q.** What about the ALP (rat liver [3]; rat, in vivo) of the same compound?
**A.** The ALP was 297.000 and 166.000 and 217.000.

**Q.** And the TBil (rat liver [4]; rat, in vivo)?
**A.** Its TBil is 0.200.

**Q.** What about the Chol. (rat liver [5]; rat, in vivo) of the same compound?
**A.** The Chol. was 64.000 and 75.000 and 63.000.

**Q.** For `CN(C)C(=N)N=C(N)N` [metformin], which “Histopathology examination of liver” value (rat liver [6]; rat, in vivo, 900 mg/kg/day) is on record?
**A.** Its value is “no observable liver abnormality”.

**Q.** What about the “Liver damage call by hepatotoxicity score versus individual clinical chemistry measures” value (rat liver [7]; one SD rat, 900 mg/kg/day) of the same compound?
**A.** The value was “false negatives”.

**Q.** `CCN(CC)N=O` [diethylnitrosamine] was tested. Which “Pathological observations in liver” value (rat liver [6]; 100 mg/kg/day treated group, 3-day treatment) did it give?
**A.** Its value is “noticeable pathological changes”.

**Q.** TNFalpha was tested. Which ALT (rat liver [1]; [9]) did it give?
**A.** Its ALT is 53.000 and 48.000 and 55.000.

**Q.** What about the AST (rat liver [2]; [9]) of the same compound?
**A.** Its AST is 70.000 (2×) and 59.000.

**Q.** And the ALP (rat liver [3]; [9])?
**A.** Its ALP is 728.000 and 255.000 and 312.000.

**Q.** What about the TBil (rat liver [4]; [9]) of the same compound?
**A.** The TBil was 0.200 (2×) and 0.100.

**Q.** What about the Chol. (rat liver [5]; [9]) of the same compound?
**A.** Its Chol. is 50.000 and 60.000 (2×).

**Q.** What does the source list for penicillin?
**A.** ALT (rat liver [1]; [10]): 51.000 and 41.000 and 44.000; ALT (rat liver [1]; [11]): 52.000 (2×) and 25.000 and 42.000; AST (rat liver [2]; [10]): 127.000 and 144.000; AST (rat liver [2]; [11]): 134.000 (2×) and 80.000 and 90.000; ALP (rat liver [3]; [10]): 290.000 and 247.000; ALP (rat liver [3]; [11]): 215.000 (2×) and 247.000 and 253.000; TBil (rat liver [4]; [10]): 0.100; TBil (rat liver [4]; [11]): 0.100; Chol. (rat liver [5]; [10]): 49.000 and 37.000 and 69.000; Chol. (rat liver [5]; [11]): 41.000 (2×) and 43.000 and 73.000

**Q.** Which results are given for `C[C@H]1C(=O)O[C@@H]2CCN3CC=C(COC(=O)[C@](C)(O)[C@]1(C)O)[C@H]23` [monocrotaline, reference compound]?
**A.** ALT (rat liver [1]; [12]): 44.000 and 64.000 and 610.000; AST (rat liver [2]; [12]): 123.000 and 135.000 and 270.000; ALP (rat liver [3]; [12]): 194.000 and 211.000 and 298.000; TBil (rat liver [4]; [12]): 0.200 (2×) and 1.500; Chol. (rat liver [5]; [12]): 54.000 and 61.000 and 69.000; Histopathology examination of liver (rat liver [6]; SD rat, 50 mg/kg/day, 3-day treatment, HS false negative sample): no observable liver abnormality; Liver damage call by hepatotoxicity score versus individual clinical chemistry measures (rat liver [7]; one SD rat, high dose 50 mg/kg/day): false negatives

**Q.** `C[C@]12CC[C@@H]3c4ccc(O)cc4CC[C@H]3[C@@H]1CC[C@@H]2O[C@@H]1O[C@H](C(=O)O)[C@@H](O)[C@H](O)[C@H]1O` [estradiol glucuronide] was tested. Which “Liver injury by ALT” value (rat liver [1]; [13]) did it give?
**A.** The value was “showed liver injury”.

**Q.** And the “Liver injury by ALP” value (rat liver [3]; [13])?
**A.** The value was “showed liver injury”.

**Q.** And the “Histopathology examination of liver” value (rat liver [6]; SD rats, 10 mg/kg/day treatment group, 3-day treatment)?
**A.** The value was “Cellular abnormality”.

**Q.** And the “Liver damage call by hepatotoxicity score versus individual clinical chemistry measures” value (rat liver [7]; SD rat, high dose 10 mg/kg/day)?
**A.** Its value is “positives detected by the hepatotoxicity score”.

**Q.** Which results are given for `C1CCC(C(CC2CCCCN2)C2CCCCC2)CC1` (centres unmarked) [perhexilene, reference compound]?
**A.** ALT (rat liver [1]; [14]): 51.000 and 129.000 and 31.000; AST (rat liver [2]; [14]): 103.000 and 116.000 and 98.000; ALP (rat liver [3]; [14]): 248.000 and 340.000 and 245.000; TBil (rat liver [4]; [14]): 0.100; Chol. (rat liver [5]; [14]): 45.000 and 44.000 and 66.000

**Q.** With `CN(C)C=O` [dimethlformamide] as the compound, how does the “Pathological observations in liver” value (rat liver [6]; 1000 mg/kg/day treated group, 3-day treatment) read?
**A.** Its value is “noticeable pathological changes”.

**Q.** Which TBil (rat liver [4]; rat, in vivo, 15 mg/kg) does the source give for `CC(C)(C)c1ccc(C(O)CCCN2CCC(C(O)(c3ccccc3)c3ccccc3)CC2)cc1` (centres unmarked) [terfenadine] here?
**A.** Its TBil is 0.100.

**Q.** And the TBil (rat liver [4]; rat, in vivo, 150 mg/kg)?
**A.** Its TBil is 0.100.

**Q.** `CC1=C(/C=C/C(C)=C/C=C/C(C)=C/CO)C(C)(C)CCC1` [Retinol] was tested. Which ALT (rat liver [1]; [15]) did it give?
**A.** The ALT was 27.000 and 31.000 and 37.000.

**Q.** What about the AST (rat liver [2]; [15]) of the same compound?
**A.** The AST was 88.000 and 157.000 and 112.000.

**Q.** What about the ALP (rat liver [3]; [15]) of the same compound?
**A.** Its ALP is 259.000 and 241.000 and 348.000.

**Q.** What about the TBil (rat liver [4]; [15]) of the same compound?
**A.** Its TBil is 0.200.

**Q.** And the Chol. (rat liver [5]; [15])?
**A.** Its Chol. is 67.000 and 50.000 and 47.000.

**Q.** Which results are given for `O=C1NC(=O)C(c2ccccc2)(c2ccccc2)N1` [phenytoin]?
**A.** ALT (rat liver [1]; [16]): 26.000 and 19.000; ALT (rat liver [1]; [17]): 49.000 and 38.000 and 24.000; AST (rat liver [2]; [16]): 65.000 and 81.000; AST (rat liver [2]; [17]): 130.000 and 71.000 and 65.000; ALP (rat liver [3]; [16]): 199.000 and 214.000; ALP (rat liver [3]; [17]): 255.000 and 233.000 and 312.000; TBil (rat liver [4]; [16]): 0.200; TBil (rat liver [4]; [17]): 0.200 and 0.100 (2×); Chol. (rat liver [5]; [16]): 77.000 and 71.000; Chol. (rat liver [5]; [17]): 61.000 and 73.000 and 66.000

**Q.** Which TBil (rat liver [4]; rat, in vivo, 75 mg/kg) does the source give for `Cn1c(=O)c2[nH]cnc2n(C)c1=O` [theophylline] here?
**A.** The TBil was 0.100.

**Q.** `CCSCC[C@H](N)C(=O)O` [L-ethionine] was tested. Which “Pathological observations in liver” value (rat liver [6]; 50 mg/kg/day treated group, 3-day treatment) did it give?
**A.** The value was “noticeable pathological changes”.

**Q.** What does the source list for `CC[C@H]1/C=C/C=C/C[C@@H](C)[C@H](O)[C@@](C)(O)C(=O)[C@@H](C)[C@H](O)[C@@H](C)C(=O)[C@@H](C)[C@H](O)[C@@H](C)/C=C/C(=O)O[C@@H]2[C@H](C)[C@H](CC1)O[C@]1(CC[C@H](C)[C@H](C[C@@H](C)O)O1)[C@H]2C` [oligomycin]?
**A.** ALT (rat liver [1]; [18]): 44.000 and 46.000 and 58.000; AST (rat liver [2]; [18]): 72.000 (2×) and 75.000; ALP (rat liver [3]; [18]): 361.000 and 289.000 and 397.000; TBil (rat liver [4]; [18]): 0.200; Chol. (rat liver [5]; [18]): 47.000 and 72.000 and 59.000

**Q.** microcystin was tested. Which ALT (rat liver [1]; rat, in vivo) did it give?
**A.** Its ALT is 140.000 and 258.000 and 144.000.

**Q.** And the AST (rat liver [2]; rat, in vivo)?
**A.** Its AST is 204.000 and 384.000 and 296.000.

**Q.** And the ALP (rat liver [3]; rat, in vivo)?
**A.** The ALP was 518.000 and 427.000 and 514.000.

**Q.** What about the TBil (rat liver [4]; rat, in vivo) of the same compound?
**A.** Its TBil is 0.600 and 0.400.

**Q.** What about the Chol. (rat liver [5]; rat, in vivo) of the same compound?
**A.** The Chol. was 84.000 and 67.000 and 95.000.

**Q.** With `CC(=O)Oc1ccccc1C(=O)O` [aspirin] as the compound, how does the “Histopathology examination of liver” value (rat liver [6]; rat, in vivo, 150 mg/kg/day) read?
**A.** The value was “Cellular abnormality”.

**Q.** And the “Liver damage call by hepatotoxicity score versus individual clinical chemistry measures” value (rat liver [8])?
**A.** The value was “positives detected by the hepatotoxicity score”.

**Q.** With `CN[C@@H]1[C@H](O)[C@H](NC)[C@H]2O[C@@]3(O)C(=O)C[C@@H](C)O[C@H]3O[C@@H]2[C@H]1O` [spectinomycin] as the compound, how does the ALT (rat liver [1]; [19]) read?
**A.** The ALT was 52.000 and 36.000 and 46.000.

**Q.** And the ALT (rat liver [1]; [20])?
**A.** The ALT was 60.000 and 44.000 and 30.000.

**Q.** And the AST (rat liver [2]; [19])?
**A.** The AST was 83.000 and 74.000 and 70.000.

**Q.** What about the AST (rat liver [2]; [20]) of the same compound?
**A.** The AST was 98.000 and 95.000 and 86.000.

**Q.** What about the ALP (rat liver [3]; [19]) of the same compound?
**A.** The ALP was 174.000 and 181.000.

**Q.** What about the ALP (rat liver [3]; [20]) of the same compound?
**A.** The ALP was 246.000 and 189.000 and 176.000.

**Q.** What about the TBil (rat liver [4]; [19]) of the same compound?
**A.** Its TBil is 0.100.

**Q.** And the TBil (rat liver [4]; [20])?
**A.** The TBil was 0.100.

**Q.** And the Chol. (rat liver [5]; [19])?
**A.** Its Chol. is 60.000 and 59.000 and 54.000.

**Q.** What about the Chol. (rat liver [5]; [20]) of the same compound?
**A.** Its Chol. is 36.000 and 62.000 and 26.000.

**Q.** For `CC/C(=C(\c1ccccc1)c1ccc(OCCN(C)C)cc1)c1ccccc1` [tamoxifen, reference compound], which “Histopathology examination of liver” value (rat liver [6]; rat, in vivo, 5 mg/kg/day) is on record?
**A.** The value was “no observable liver abnormality”.

**Q.** `CN1C(=O)CN=C(c2ccccc2)c2cc(Cl)ccc21` [diazepam] was tested. Which TBil (rat liver [4]; rat, in vivo) did it give?
**A.** Its TBil is 0.100.
